Patent publication US5110925A, “Pyridazinone derivatives” (Nippon Soda Co., Ltd., priority 1988, dated 1992)
≈ marks a conversion by molar mass, not a printed value. Read-outs that look alike come from different tables or passages of the source.

Experiments:
PDE-III = target: T1, PDE-III (Cavia porcellus, UniProt H0VIU9); experiment: Inhibition of Phosphodiesterase PDE-III; assay type: biochemical, guinea pig (left ventricular muscles)
T1 construct: different forms of cyclic nucleotide phosphodiesterase from guinea pig left ventricular muscles; from tissue; host or cells: guinea pig left ventricular muscle, DEAE-cellulose fraction
T1 sequence (H0VIU9 1-1132): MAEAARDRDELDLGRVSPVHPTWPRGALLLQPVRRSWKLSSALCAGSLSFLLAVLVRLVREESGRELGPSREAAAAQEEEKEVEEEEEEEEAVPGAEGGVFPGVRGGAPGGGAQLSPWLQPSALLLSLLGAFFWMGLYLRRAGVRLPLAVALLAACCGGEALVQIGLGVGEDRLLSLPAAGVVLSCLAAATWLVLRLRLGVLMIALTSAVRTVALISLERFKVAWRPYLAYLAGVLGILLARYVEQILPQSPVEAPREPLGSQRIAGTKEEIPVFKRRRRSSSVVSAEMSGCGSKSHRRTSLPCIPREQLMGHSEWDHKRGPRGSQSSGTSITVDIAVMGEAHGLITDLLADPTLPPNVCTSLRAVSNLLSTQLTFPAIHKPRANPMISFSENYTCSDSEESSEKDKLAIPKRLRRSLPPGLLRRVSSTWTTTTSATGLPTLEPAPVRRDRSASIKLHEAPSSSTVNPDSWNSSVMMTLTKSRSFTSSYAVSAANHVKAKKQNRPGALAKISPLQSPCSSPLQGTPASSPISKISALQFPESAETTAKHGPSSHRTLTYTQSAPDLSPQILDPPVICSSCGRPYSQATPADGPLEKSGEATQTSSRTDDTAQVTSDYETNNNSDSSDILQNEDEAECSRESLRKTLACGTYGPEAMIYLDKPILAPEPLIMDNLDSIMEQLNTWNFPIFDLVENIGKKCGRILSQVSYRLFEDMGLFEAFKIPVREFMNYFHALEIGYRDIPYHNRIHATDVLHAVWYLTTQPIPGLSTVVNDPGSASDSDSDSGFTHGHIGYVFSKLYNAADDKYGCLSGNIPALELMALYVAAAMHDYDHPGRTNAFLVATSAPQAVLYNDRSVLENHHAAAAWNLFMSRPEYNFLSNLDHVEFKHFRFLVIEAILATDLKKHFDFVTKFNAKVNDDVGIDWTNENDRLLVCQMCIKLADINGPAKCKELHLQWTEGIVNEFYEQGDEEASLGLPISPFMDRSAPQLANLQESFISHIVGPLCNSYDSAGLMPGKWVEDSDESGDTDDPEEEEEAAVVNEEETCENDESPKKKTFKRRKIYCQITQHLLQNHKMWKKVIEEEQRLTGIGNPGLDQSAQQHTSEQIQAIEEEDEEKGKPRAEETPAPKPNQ
Source text: (§1) The preparation of different forms of cyclic nucleotide phosphodiesterase from guinea pig left ventricular muscles was done by following the procedure of Weishaar, et al. (R. Weishaar, et al., Biochemical Pharmacology, 35, 787-800, 1986) with the minor modified method of Thompson, et al. (W. J. Thompson, et al., Advances in Cyclic Nucleotide Research, 10, 69-92, 1979). Briefly, the three active forms of phosphodiesterase (PDE-I, PDE-II, PDE-III) present in the ventricular muscles were discretely eluted from a DEAE-cellulose column (Whatman, DE-52, .phi. 2.5×20 cm) using a continuous 70-800 mM sodium acetate gradient.
(§2) The phosphodiesterase activity was assayed by minor modifications of the method described by Furutani et al. (Y. Furutani, et al., Journal of Antibiotics, 28, 558-560, 1975). Briefly, 1 mM ^3 H-cAMP was hydrolyzed by the phosphodiesterase and the unhydrolyzed ^3 H-cAMP which was separated from the formed 5'-AMP by a dry alumina (Merck, activity 1, neutral) was counted by a liquid scintillation counter.
(§3) The concentrations causing a 50% inhibition of the phosphodiesterase activity (IC50) were calculated from the concentration-inhibition curves.

Anesthetized Dogs = experiment: Cardiotonic Action: Anesthetized Dogs; assay type: in vivo, dog (adult mongrel); details: for ED50: Canis lupus familiaris, iv, read-out: LVdp/dtmax ED50; for % Changes in Heart rate / % Changes in Blood pressure: i.v.; for % Changes in Blood pressure: femoral arterial pressure
Description: Adult mongrel dogs of either sex weighing 8 to 15 kg were used.
The animals were anesthetized with sodium pentobarbital (30 mg/kg, i.v.) and maintained by an intravenous infusion of the anesthetic at a rate of 4 mg/kg per hour.
A cuffed endotracheal tube was inserted and an artificial respirator installed. The animals were ventilated with room air in a tidal volume of 20 ml/kg at a rate of 20 brearhs per minute.
Cannulae were inserted into the femoral vein for a falling drop of a physiological saline or for an infusion of the anesthetic, and into the femoral artery for measuring arterial blood pressure with a pressure transducer. Heart rate was recorded with a heart rate counter triggered by the R wave of the electrocardiogram (ECG).
ECG in standard lead II was monitored with a bioelectric amplifier.
Left ventricular pressure was measured with a catheter tip pressure transducer inserted via the right carotid artery into the left ventricle. Left ventricular dp/dtmax was obtained by an electric differentiator.
The compounds were injected through the cannula in the femoral vein at a dose of 0.001-0.3 mg/0.1 ml/kg.

PDE-I = experiment: Inhibition of Phosphodiesterase PDE-I; assay type: biochemical, guinea pig (left ventricular muscles); details: 1 mM 3H-cAMP substrate
Source text: as §1, §2, §3

guinea pig left atria = experiment: Cardiotonic Action: Electrically Stimulating Isolated Guinea Pig Left Atria; parameters: species or system guinea pig (male Hartley); details: Cavia porcellus, read-out: contractility of guinea pig left atria EC50
Description: Male Hartley guinea pigs weighing 350-500 g were used.
The hearts were excised from the animals. The left atria were dissected from the hearts and mounted in an organ bath.
The atria were stimulated by square wave pulses of 3 msec duration and a voltage ranging from 1.2-fold to 1.5-fold of the threshold at a frequency of 60/min with an electric stimulator.
Resting tension was adjusted to 0.5 g and contraction was recorded on the Polygraph Systems with a force-displacement transducer.
All preparations were allowed to equilibrate with the bath medium for 90 to 120 min.

mice = experiment: Acute Toxicity in mice, oral single dose; assay type: in vivo, mouse (male); details: male mice, 300 mg/kg, p.o., 7 days observation
Source text: The acute toxicity of the test compounds was studied in male mice after oral administration of a single dose.

PDE-II = target: T2, PDE-II (Cavia porcellus, UniProt A0A286XUV5); experiment: Inhibition of Phosphodiesterase PDE-II; assay type: biochemical, guinea pig (left ventricular muscles); details: 1 mM 3H-cAMP substrate
T2 construct: different forms of cyclic nucleotide phosphodiesterase from guinea pig left ventricular muscles; from tissue; host or cells: guinea pig left ventricular muscle, DEAE-cellulose fraction
T2 sequence (A0A286XUV5 22-936): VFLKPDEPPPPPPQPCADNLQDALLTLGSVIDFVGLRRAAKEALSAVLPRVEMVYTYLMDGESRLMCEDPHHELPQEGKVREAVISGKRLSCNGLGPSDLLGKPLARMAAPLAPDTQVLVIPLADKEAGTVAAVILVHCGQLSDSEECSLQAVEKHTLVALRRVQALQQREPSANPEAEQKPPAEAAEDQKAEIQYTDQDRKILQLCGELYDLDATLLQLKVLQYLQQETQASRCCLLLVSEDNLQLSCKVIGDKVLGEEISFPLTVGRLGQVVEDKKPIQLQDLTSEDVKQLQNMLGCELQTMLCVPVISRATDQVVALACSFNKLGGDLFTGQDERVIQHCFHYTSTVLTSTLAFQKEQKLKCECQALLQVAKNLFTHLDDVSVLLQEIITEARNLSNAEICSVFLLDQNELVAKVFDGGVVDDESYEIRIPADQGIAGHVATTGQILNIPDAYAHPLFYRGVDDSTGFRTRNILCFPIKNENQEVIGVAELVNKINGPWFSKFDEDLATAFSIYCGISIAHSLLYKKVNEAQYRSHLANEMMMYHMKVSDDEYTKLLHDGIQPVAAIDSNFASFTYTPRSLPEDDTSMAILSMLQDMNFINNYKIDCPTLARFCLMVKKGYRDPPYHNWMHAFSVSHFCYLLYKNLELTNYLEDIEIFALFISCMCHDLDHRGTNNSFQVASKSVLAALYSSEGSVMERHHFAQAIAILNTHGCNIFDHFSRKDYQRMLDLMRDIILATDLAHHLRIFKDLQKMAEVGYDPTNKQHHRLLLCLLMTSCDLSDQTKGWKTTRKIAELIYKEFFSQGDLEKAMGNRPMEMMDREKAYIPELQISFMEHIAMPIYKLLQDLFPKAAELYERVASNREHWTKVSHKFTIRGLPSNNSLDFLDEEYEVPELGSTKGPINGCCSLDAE
Source text: as §1, §2, §3

[1] = 1 mM 3H-cAMP substrate, read-out: phosphodiesterase inhibition IC50 PDE-III
[2] = dose producing a 50% increase in LVdp/dtmax, anesthetized dogs
[3] = concentration causing a 50% increase in contractility, cumulative addition, 30° C.

SMILES | IC50 (PDE-III; [1]) | ED50 (Anesthetized Dogs; [2]) | % Changes in Heart rate (Anesthetized Dogs; anesthetized dogs) | % Changes in Blood pressure (Anesthetized Dogs; anesthetized dogs) | IC50 (PDE-I) | EC50 (guinea pig left atria; [3]) | mortality (number of dead animals/number of treated animals) (mice) | IC50 (PDE-II) | IC50 (PDE-III) | ED50 (Anesthetized Dogs) | EC50 (guinea pig left atria)
O=C1CCC(c2ccc(-n3ccnc3)cc2)=NN1 [CI-914, reference compound] | 5.7 µM | 0.095 mg/kg | 9% | -10% | > 1000 µM | 1.8 µg/mL (≈ 7.49 µM) | 2/3 | – | – | – | –
CC1(C)CC(=O)C=C(Nc2ccc(C3=NNC(=O)CC3)cc2)C1 [Compound 1] | 1.2 µM | 0.043 mg/kg | 5% | -1% | 900 µM | 0.23 µg/mL (≈ 0.739 µM) | 0/3 | 250 µM | – | – | –
O=C1C=C(Nc2ccc(C3=NNC(=O)CC3)cc2)CC1 [Compound 2, 4,5-Dihydro-6-((4-(3-oxo-1-cyclopentenyl)amino)phenyl)-3(2H)-pyridazinone] | 1.2 µM | 0.006 mg/kg | 6% | -2% | 1000 µM | 0.11 µg/mL (≈ 0.408 µM) | 0/3 | 235 µM | – | – | –
O=C1C=C(Nc2ccc(C3=NNC(=O)CC3)cc2)CCC1 [Compound 3] | 0.47 µM | 0.009 mg/kg | 2% | -4% | 210 µM | 0.23 µg/mL (≈ 0.812 µM) | 0/3 | 180 µM | – | – | –
CC1=C(Nc2ccc(C3=NNC(=O)CC3)cc2)CCC1=O [Compound 4, 4,5-Dihydro-6-(4-((2-methyl-3-oxo-1-cyclopentenyl)-amino)phenyl)-3(2H)-pyridazinone] | 2 µM | 0.012 mg/kg | 5% | -2% | 610 µM | 0.24 µg/mL (≈ 0.847 µM) | 1/3 | 330 µM | – | – | –
CC1CC(=O)NN=C1c1ccc(NC2=CC(=O)CC2)cc1 (stereo not shown) [Compound 14, 4,5-Dihydro-6-(4-((3-oxo-1-cyclopentenyl)amino)phenyl)-5-methyl-3(2H)-pyridazinone] | 0.88 µM | 0.008 mg/kg | 13% | -11% | 310 µM | 0.12 µg/mL (≈ 0.424 µM) | – | 260 µM | – | – | –
CC1=C(Nc2ccc(C3=NNC(=O)CC3C)cc2)CCC1=O (stereo not shown) [Compound 15, 4,5-Dihydro-6-(4-((2-methyl-3-oxo-1-cyclopentenyl)amino)phenyl)-5-methyl-3(2H)-pyridazinone] | 0.59 µM | 0.012 mg/kg | 19% | -18% | > 1000 µM | 0.054 µg/mL (≈ 0.182 µM) | – | 940 µM | – | – | –
O=C1C=C(Nc2ccc3c(c2)OCC2CC(=O)NN=C32)CC1 (stereo not shown) [Compound 24, 8-(3-oxo-1-cyclopentenylamino)-3,4,4a,5-tetrahydro-2H-(1)benzopyrano(4,3-c)-pyridazinon-3-one] | 4.1 µM | 0.022 mg/kg | 4% | -7% | > 100 µM | – | – | 100 µM | – | – | –
CC1=C(Nc2ccc3c(c2)OCC2CC(=O)NN=C32)CCC1=O (stereo not shown) [Compound 26] | 2.3 µM | 0.03 mg/kg | 8% | -6% | > 1000 µM | – | – | 100 µM | – | – | –
O=C1C=C(Nc2ccc3c(c2)CCC2CC(=O)NN=C32)CC1 (stereo not shown) [Compound 35] | 1.6 µM | 0.023 mg/kg | 3% | -4% | > 100 µM | – | – | 49 µM | – | – | –
Cc1[nH]c(=O)c(C#N)cc1-c1ccncc1 [Milrinone, milrinone, reference compound] | – | – | 6% | -6% | 151 µM | – | 3/3 | 142 µM | 2.8 µM | 0.023 mg/kg | 0.43 µg/mL (≈ 2.04 µM)
